Converted amounts (≈) assume the structure as drawn. The source made the active and inactive calls. No cut-off for these calls is given here.
Legend:
Candida tropicalis [1] = assay: Antifungal activity against Candida tropicalis ATCC 20021 at 1 mg/mL by agar-well diffusion assay; assay type: functional
Candida tropicalis [2] = assay: Antifungal activity against Candida tropicalis LM 64 by twofold serial broth dilution method; assay type: functional
Candida parapsilosis [3] = assay: Antifungal activity against Candida parapsilosis ATCC 20224 by twofold serial broth dilution method; assay type: functional; conditions: Lodderomyces parapsilosis
Torula [4] = assay: Antifungal activity against Torula cremoris NRRL 7495 by twofold serial broth dilution method; assay type: functional
Candida albicans [5] = assay: Antifungal activity against Candida albicans B311 by twofold serial broth dilution method; assay type: functional
[6] = tested on: Trichophyton mentagrophytes; assay: Antimicrobial activity against Trichophyton mentagrophytes at 1 mg/mL by agar-well diffusion assay; assay type: functional
Candida tropicalis [7] = assay: Antifungal activity against Candida tropicalis ATCC 20326 by twofold serial broth dilution method; assay type: functional
Candida albicans [8] = assay: Antifungal activity against Candida albicans ATCC 10231 at 1 mg/mL by agar-well diffusion assay; assay type: functional
Torula [9] = assay: Antifungal activity against Torula cremoris NRRL 7495 at 1 mg/mL by agar-well diffusion assay; assay type: functional
Candida albicans [10] = assay: Antimicrobial activity against Candida albicans at 1 mg/mL by agar-well diffusion assay; assay type: functional; conditions: for zone of inhibition at 1000 µg/mL: Candida albicans, read-out: IZ
Candida tropicalis [11] = assay: Antifungal activity against Candida tropicalis LM 64 at 1 mg/mL by agar-well diffusion assay; assay type: functional
Candida parapsilosis [12] = assay: Antifungal activity against Candida parapsilosis ATCC 20224 at 1 mg/mL by agar-well diffusion assay; assay type: functional
Mus musculus [13] = assay: Toxicity in CD1 mouse assessed as body weight at 40 mg/kg, ip administered for 14 consecutive days measured after day 14; assay type: organism-based; design: dose 40 mg/kg, route intraperitoneal; conditions: in vivo
Starmerella magnoliae = assay: Antifungal activity against Candida magnoliae ATCC 12573 at 1 mg/mL by agar-well diffusion assay; assay type: functional
Candida albicans [14] = assay: Antifungal activity against Candida stellatoidea SA-I at 1 mg/mL by agar-well diffusion assay; assay type: functional
Mus musculus [15] = assay: Toxicity in CD1 mouse assessed as body weight at 40 mg/kg, ip administered for 14 consecutive days measured after day 21; assay type: organism-based; design: dose 40 mg/kg, route intraperitoneal; conditions: in vivo
Candida albicans [16] = assay: Antifungal activity against Candida stellatoidea SA-I by twofold serial broth dilution method; assay type: functional
Candida albicans [17] = assay: Antifungal activity against Candida albicans ATCC 10231 by twofold serial broth dilution method; assay type: functional
Aspergillus fumigatus = assay: Antimicrobial activity against Aspergillus fumigatus at 1 mg/mL by agar-well diffusion assay; assay type: functional; conditions: for zone of inhibition at 1000 µg/mL: Aspergillus fumigatus, read-out: IZ
Candida albicans [18] = assay: Antifungal activity against Candida albicans B311 at 1 mg/mL by agar-well diffusion assay; assay type: functional
Yarrowia deformans [19] = assay: Antifungal activity against Torulopsis petrophilum ATCC 20225 at 1 mg/mL by agar-well diffusion assay; assay type: functional
Nannizzia gypsea = assay: Antimicrobial activity against Microsporum gypseum at 1 mg/mL by agar-well diffusion assay; assay type: functional
Candida tropicalis [20] = assay: Antifungal activity against Candida tropicalis ATCC 20021 by twofold serial broth dilution method; assay type: functional
Mus musculus [21] = assay: Toxicity in CD1 mouse assessed as body weight at 40 mg/kg, ip after day 1; assay type: organism-based; design: dose 40 mg/kg, route intraperitoneal; conditions: in vivo
Yarrowia deformans [22] = assay: Antifungal activity against Torulopsis petrophilum ATCC 20225 by twofold serial broth dilution method; assay type: functional
Candida tropicalis [23] = assay: Antifungal activity against Candida tropicalis ATCC 20326 at 1 mg/mL by agar-well diffusion assay; assay type: functional
Candida albicans [24] = assay: (§1) Antifungal activity against Candida albicans NIH B311 infected in mouse assessed as reduction in number of recovered colony-forming units assessed per mg of kidney at 3 mg/kg, sc administered 7 and 24 hrs after infection measured 16 hrs after final injection by tenfold serial dilution method relative to control; assay type: functional; design: scale not given: the % may be the effect or the level left; conditions: route subcutaneous
Candida albicans [25] = assay: as §1, with “at 10” for “at 3”, “mg/kg, iv” for “mg/kg, sc”, “administered 18” for “administered 7”, “and 42” for “and 24”; assay type: functional; design: scale not given: the % may be the effect or the level left
Candida albicans [26] = assay: as §1, with “at 10” for “at 3”; assay type: functional; design: scale not given: the % may be the effect or the level left; conditions: route subcutaneous
[27] = Toxicity in ip dosed CD1 mouse; assay type: organism-based; conditions: in vivo
Mus musculus [28] = assay: Toxicity in CD1 mouse assessed as unusual behavioral changes at 40 mg/kg, ip administered for 14 consecutive days measured daily for 4 weeks; assay type: organism-based; design: dose 40 mg/kg, route intraperitoneal; conditions: in vivo, 672 h
Candida albicans [29] = assay: as §1, with “at 20” for “at 3”, “mg/kg, iv” for “mg/kg, sc”, “administered 18” for “administered 7”, “and 42” for “and 24”; assay type: functional; design: scale not given: the % may be the effect or the level left
[30] = tested on: Mycobacterium intracellulare; assay: Antimicrobial activity against Mycobacterium intracellular at 1 mg/mL by agar-well diffusion assay; assay type: functional; conditions: for zone of inhibition at 1000 µg/mL: read-out: IZ
[31] = Toxicity in iv dosed CD1 mouse; assay type: organism-based; conditions: in vivo
Candida albicans [32] = assay: as §1, with “at 20” for “at 3”; assay type: functional; design: scale not given: the % may be the effect or the level left; conditions: route subcutaneous
Aspergillus flavus = assay: Antimicrobial activity against Aspergillus flavus at 1 mg/mL by agar-well diffusion assay; assay type: functional
Cryptococcus neoformans = assay: Antimicrobial activity against Cryptococcus neoformans at 1 mg/mL by agar-well diffusion assay; assay type: functional
Saccharomyces cerevisiae = assay: Antimicrobial activity against Saccharomyces cerevisiae at 1 mg/mL by agar-well diffusion assay; assay type: functional, organism-based
Bacillus subtilis = assay: Antimicrobial activity against Bacillus subtilis at 1 mg/mL by agar-well diffusion assay; assay type: functional, organism-based
Pseudomonas aeruginosa = assay: Antimicrobial activity against Pseudomonas aeruginosa at 1 mg/mL by agar-well diffusion assay; assay type: functional, organism-based
Escherichia coli = assay: Antimicrobial activity against Escherichia coli at 1 mg/mL by agar-well diffusion assay; assay type: functional, organism-based
Staphylococcus aureus = assay: Antimicrobial activity against Staphylococcus aureus at 1 mg/mL by agar-well diffusion assay; assay type: functional, organism-based

COC(=O)C1=CC[C@@]23CC[C@@H]([C@@](C)(/C=C/C=C(\C)C(=O)[O-])OC2=O)[C@@]3(OC(C)=O)CC1.[K+] [POTASSIUM PSEUDOLARATE B]
inhibition zone (IZ) (Candida tropicalis [1]): 7 mm
MFC (Candida tropicalis [2]): 6.25 µg/mL
MIC (Candida tropicalis [2]): 0.78 µg/mL
MFC (Candida parapsilosis [3]): 25 µg/mL
MIC (Candida parapsilosis [3]): 3.12 µg/mL
MFC (Torula [4]): 12.5 µg/mL
MIC (Torula [4]): 12.5 µg/mL
MFC (Candida albicans [5]): 6.25 µg/mL
MIC (Candida albicans [5]): 3.12 µg/mL
inhibition zone (IZ) [6]: 7 mm
MFC (Candida tropicalis [7]): 6.25 µg/mL
MIC (Candida tropicalis [7]): 1.56 µg/mL
inhibition zone (IZ) (Candida albicans [8]): 7 mm
inhibition zone (IZ) (Torula [9]): 3 mm
inhibition zone (IZ) (Candida albicans [10]): 7 mm
inhibition zone (IZ) (Candida tropicalis [11]): >12 mm
inhibition zone (IZ) (Candida parapsilosis [12]): 7 mm
Activity (Mus musculus [13]): 25.4 g
inhibition zone (IZ) (Starmerella magnoliae): <1 mm
inhibition zone (IZ) (Candida albicans [14]): 7 mm
Activity (Mus musculus [15]): 25.6 g
MFC (Candida albicans [16]): 6.25 µg/mL
MIC (Candida albicans [16]): 3.12 µg/mL
MFC (Candida albicans [17]): 6.25 µg/mL
MIC (Candida albicans [17]): 1.56 µg/mL
inhibition zone (IZ) (Aspergillus fumigatus): 3 mm
inhibition zone (IZ) (Candida albicans [18]): 7 mm
inhibition zone (IZ) (Yarrowia deformans [19]): 7 mm
inhibition zone (IZ) (Nannizzia gypsea): 7 mm
MFC (Candida tropicalis [20]): 6.25 µg/mL
MIC (Candida tropicalis [20]): 3.12 µg/mL
Activity (Mus musculus [21]): 24.2 g
MFC (Yarrowia deformans [22]): 12.5 µg/mL
MIC (Yarrowia deformans [22]): 0.78 µg/mL
inhibition zone (IZ) (Candida tropicalis [23]): 7 mm

COC(=O)C1=CC[C@@]23CC[C@@H]([C@@](C)(/C=C/C=C(\C)C(=O)O)OC2=O)[C@@]3(OC(C)=O)CC1 [PSEUDOLARIC ACID B]
Activity (Candida albicans [24]): 70.27%
zone of inhibition at 1000 µg/mL (Candida tropicalis [1]; Candida tropicalis, ATCC 20021, read-out: IZ): 7 mm
Activity (Candida albicans [25]): 95.34%
Activity (Candida albicans [26]): 75%
MFC (Candida tropicalis [2]): 6.25 µg/mL (≈ 14.5 µM)
MIC (Candida tropicalis [2]): 0.78 µg/mL (≈ 1.8 µM)
MFC (Candida parapsilosis [3]): 12.5 µg/mL (≈ 28.9 µM)
MIC (Candida parapsilosis [3]): 3.12 µg/mL (≈ 7.21 µM)
MFC (Torula [4]): 12.5 µg/mL (≈ 28.9 µM)
MIC (Torula [4]): 12.5 µg/mL (≈ 28.9 µM)
MFC (Candida albicans [5]): 3.12 µg/mL (≈ 7.21 µM)
MIC (Candida albicans [5]): 1.56 µg/mL (≈ 3.61 µM)
zone of inhibition at 1000 µg/mL ([6]; Trichophyton mentagrophytes, read-out: IZ): 7 mm
MFC (Candida tropicalis [7]): 3.12 µg/mL (≈ 7.21 µM)
MIC (Candida tropicalis [7]): 1.56 µg/mL (≈ 3.61 µM)
LD50 [27]: 316 mg/kg
zone of inhibition at 1000 µg/mL (Candida albicans [8]; Candida albicans, ATCC 10231, read-out: IZ): 7 mm
zone of inhibition at 1000 µg/mL (Torula [9]; Torula, NRRL 7495, read-out: IZ): 3 mm
Activity (Mus musculus [28]): Non-toxic
Activity (Candida albicans [29]): 59.9%
zone of inhibition at 1000 µg/mL (Candida albicans [10]): 7 mm
zone of inhibition at 1000 µg/mL [30]: 1 mm
zone of inhibition at 1000 µg/mL (Candida tropicalis [11]; Candida tropicalis, read-out: IZ): > 12 mm
zone of inhibition at 1000 µg/mL (Candida parapsilosis [12]; Lodderomyces parapsilosis, ATCC 20224, read-out: IZ): 7 mm
Activity (Mus musculus [13]): 24.1 g
zone of inhibition at 1000 µg/mL (Starmerella magnoliae; ATCC 12573, read-out: IZ): < 1 mm
LD50 [31]: 423 mg/kg
zone of inhibition at 1000 µg/mL (Candida albicans [14]; Candida albicans, read-out: IZ): > 12 mm
Activity (Mus musculus [15]): 24.7 g
MFC (Candida albicans [16]): 6.25 µg/mL (≈ 14.5 µM)
MIC (Candida albicans [16]): 1.56 µg/mL (≈ 3.61 µM)
MFC (Candida albicans [17]): 3.12 µg/mL (≈ 7.21 µM)
MIC (Candida albicans [17]): 1.56 µg/mL (≈ 3.61 µM)
zone of inhibition at 1000 µg/mL (Aspergillus fumigatus): 3 mm
zone of inhibition at 1000 µg/mL (Candida albicans [18]; Candida albicans, B311, read-out: IZ): 7 mm
Activity (Candida albicans [32]): 76.7%
zone of inhibition at 1000 µg/mL (Yarrowia deformans [19]; Yarrowia deformans, ATCC 20225, read-out: IZ): 7 mm
zone of inhibition at 1000 µg/mL (Nannizzia gypsea; Nannizzia gypsea, read-out: IZ): 7 mm
MFC (Candida tropicalis [20]): 3.12 µg/mL (≈ 7.21 µM)
MIC (Candida tropicalis [20]): 1.56 µg/mL (≈ 3.61 µM)
Activity (Mus musculus [21]): 22.5 g
MFC (Yarrowia deformans [22]): 1.56 µg/mL (≈ 3.61 µM)
MIC (Yarrowia deformans [22]): 0.78 µg/mL (≈ 1.8 µM)
zone of inhibition at 1000 µg/mL (Candida tropicalis [23]; Candida tropicalis, ATCC 20326, read-out: IZ): 7 mm

CC(=O)O[C@]12CCC(C(=O)O)=CC[C@]13CC[C@H]2[C@@](C)(/C=C/C=C(\C)C(=O)O)OC3=O [PSEUDOLARIC ACID C2]
Activity [6]: inactive
Activity (Aspergillus flavus): inactive
Activity (Cryptococcus neoformans): inactive
Activity (Saccharomyces cerevisiae): inactive
Activity (Bacillus subtilis): inactive
zone of inhibition at 1000 µg/mL (Candida albicans [10]): < 1 mm
Activity [30]: inactive
Activity (Pseudomonas aeruginosa): inactive
Activity (Escherichia coli): inactive
Activity (Aspergillus fumigatus): inactive
Activity (Nannizzia gypsea): inactive
Activity (Staphylococcus aureus): inactive

COC(=O)C1=CC[C@@]23CC[C@@H]([C@@](C)(/C=C/C=C(\C)C(=O)O)OC2=O)[C@@]3(O)CC1 [PSEUDOLARIC ACID C]
Activity [6]: inactive
zone of inhibition at 1000 µg/mL (Aspergillus flavus; read-out: IZ): 1 mm
zone of inhibition at 1000 µg/mL (Cryptococcus neoformans; read-out: IZ): 1 mm
Activity (Saccharomyces cerevisiae): inactive
Activity (Bacillus subtilis): inactive
zone of inhibition at 1000 µg/mL (Candida albicans [10]): 1 mm
zone of inhibition at 1000 µg/mL [30]: 1 mm
Activity (Pseudomonas aeruginosa): inactive
Activity (Escherichia coli): inactive
zone of inhibition at 1000 µg/mL (Aspergillus fumigatus): 1 mm
Activity (Nannizzia gypsea): inactive
Activity (Staphylococcus aureus): inactive

COC(=O)C1=CC[C@@]23CC[C@@H]([C@@](C)(/C=C/C=C(\C)C(=O)[O-])OC2=O)[C@@]3(OC(C)=O)CC1.[Na+] [SODIUM PSEUDOLARATE B]
inhibition zone (IZ) [6]: 7 mm
inhibition zone (IZ) (Candida albicans [10]): 7 mm
inhibition zone (IZ) (Aspergillus fumigatus): 3 mm
inhibition zone (IZ) (Nannizzia gypsea): 7 mm
